Assay results reported in patent US20090209620A1, “Direct Reversal Of The Suppressive Function Of CD4+Regulatory T Cells Via Toll-Like Receptor 8 Signaling” (priority 2005, published 2009).
Entries after “also recorded” stand apart in the source; their conditions may differ. In the oligonucleotide strings, read from the 5' end, every base follows the letter of its sugar. An asterisk marks phosphorothioate; unmarked linkages are phosphodiester. Other units and linkages are bracketed, terminal groups are in braces. A string of capitals states the bases alone. d = 2'-deoxy (DNA)

Tests used:
[1] = tested on: CD4+ Treg cells (Treg102, Treg164); assay: Proliferation assay without DCs: Treg suppression of naive CD4+ T cell proliferation, anti-CD3-coated plates; format: cell-based, human; settings: absence of DCs; for reversal of Treg cell-mediated suppression of naive CD4+ T cell proliferation: anti-CD3-coated plates, oligonucleotides 3 ug/ml in medium
Excerpt: Establishing Treg cell lines and purifying natural CD4^+ CD25^+ Treg cells CD4^+ Treg clones were established from CD4^+ tumor-infiltrating lymphocytes (TIL102 and TIL164) and maintained in RPMI 1640 medium containing 10% human AB serum and recombinant IL-2 (300 IU/ml) using methods well known in the art (See, e.g., H. Y. Wang et al., Immunity 20, 107-118 (2004)). Treg clones derived from TIL102 or TIL164 cells were pooled and designated Treg102 or Treg164. Naturally occurring CD4^+ CD25^+ Treg cells were obtained by sorting CD4^+ T cell populations from fresh PBMCs after staining with anti-CD4 and anti-CD25 antibodies. To obtain optimal expansion, the OKT3 expansion method was performed using methods well known in the art (See, e.g., H. Y. Wang et al., Immunity 20, 107-118 (2004)). T cell clones were maintained at a low IL-2 concentration (300 IU/ml). Melanoma cell lines and EBV-transformed B-cell lines used in this study were cultured in RPMI 1640 medium containing 10% FCS. Human embryonic kidney (HEK) 293 and Epstein-Barr virus (EBV)-transformed B cell lines were maintained in RPMI 1640 with 10% fetal calf serum (FCS).
B. Proliferation assay without DCs: 1×10^5 näive CD4 T cells were cultured with regulatory T cells at different ratios (1: 0.2, 1:0.1 and 1:0.05) in anti-CD3 mAb-coated (2 ug/ml) 96-well plates in the presence or absence of the following TLR ligands or cytokines: CpG-A (3 ug/ml), CpG-B (3 ug/ml), LPS (100 ng/ml), TNF.-α (20 ng/ml), IFN-α (100 ng/ml), or IL-6 (100 ng/ml). After 56 h of culture, [3H]thymidine was added at a final concentration of 1 uCi/well, followed by an additional 16 h of culture. The incorporation of [^3H]thymidine was measured with a liquid scintillation counter.
Näive CD4^+ T cell proliferation experiments were performed similar to those in FIG. 1A, but in the absence of DCs. […] The reversal effect of CpG-A (SEQ ID NO: 1) contrasts with the failure of CpG-B (SEQ ID NO: 2), LPS, TNF-α, IL-6 or IFN-α to block the suppressive activity of CD4^+ Treg cells against naive CD4^+ T cells (FIG. 1B).
To further define the CpG-A (SEQ ID NO: 1) sequences responsible for the observed reversal effect, CpG-NG (SEQ ID NO: 5) and Poly-G10 (SEQ ID NO: 6), were tested for their ability to reverse the suppressive function of Treg cells. Naive CD4^+ T cells were mixed with CD4^+ Treg cells in anti-CD3 antibody-coated 96-wells with 200 μl of medium containing CpG-NG (SEQ ID NO: 5), CpG-A (SEQ ID NO: 1) or Poly-G10 (SEQ ID NO: 6). The proliferation assay was conducted as described in FIG. 1. […] For the experiments shown in FIG. 2B, naive CD4^+ T cells were mixed with CD4^+ Treg cells in anti-CD3 antibody-coated 96-wells with 200 μl of medium containing Poly-A10 (SEQ ID NO: 7), Poly-T10 (SEQ ID NO: 9) or Poly-C10 (SEQ ID NO: 8), while the Poly-G10 (SEQ ID NO: 6) oligonucleotides served as a positive control.
A series of oligonucleotides with decreasing numbers of guanosine nucleosides was constructed to determine the minimal number required for the reversal effect. For the experiments in FIG. 2C, CD4^+ T cells were mixed with CD4^+ Treg cells in anti-CD3 antibody-coated 96-wells containing medium with protected phosphorothioate linked guanosine nucleoside containing oligonucleotides of various lengths, while the unprotected five guanosines (SEQ ID NO: 10) served as a control.

[2] = tested on: CD4+ Treg cells; assay: Pretreatment of Treg cells, then proliferation assay with naive CD4+ T cells (without DCs); format: cell-based, human; settings: Treg cells pretreated 3 days, washed, then mixed with naive CD4+ T cells
Procedure: C. Pretreatment of Treg cells: 1×10^6 Treg cells were cultured in medium containing CpG-A (3 ug/ml), CpG-B (3 ug/ml), LPS (100 ng/ml), TNF.-α (20 ng/ml), IFN-α (100 ng/ml) or IL-6 (100 ng/ml) for 3 days. After three washes, the pretreated Treg cells were cultured with näive CD4^+ T cells in anti-CD3 mAb-coated plates (without DCs) to determine their suppressive function. After 56 h of culture, [3H]thymidine was added at a final concentration of 1 uCi/well, and cultured for an additional 16 h. The incorporation of [^3H]thymidine was measured with a liquid scintillation counter.
To exclude the possibility that the purified naive CD4^+ T cells might have been contaminated with a small number of monocytes or DCs, cultured CD4^+ Treg cells (100% purity) were pretreated with CpG-A (SEQ ID NO: 1) for 3 days. After three washes, the pretreated CD4^+ Treg cells were mixed with naive CD4^+ T cells in anti-CD3 antibody-coated plates to evaluate their ability to suppress the proliferation of naive CD4^+ T cells.
To determine whether the CpG motif in CpG A confers the ability to reverse the suppressive function of CD4^+ Treg cells, CD4^+ Treg cell lines were pretreated for 3 days with CpG-A (SEQ ID NO: 1), non-CpG-A (CG changed to GC in CpG-A; SEQ ID NO: 3), CpG B (SEQ ID NO: 2) or non-CpG-B (CG changed to GC in CpG-B; SEQ ID NO: 4), and used them in proliferation assays following extensive washes.
Treg cells were pretreated with Poly-G2 (SEQ ID NO: 15) in different concentrations of chloroquine to examine whether acidification is required for the function of guanosine containing oligonucleotides. After extensive washes, the pretreated Treg cells were used for functional assays.

## Poly-G10: guanosine oligonucleotide with protected phosphorothioate backbone (DNA dG*dG*dG*dG*dG*dG*dG*dG*dG*dG)
[1]
  reversal of Treg cell-mediated suppression of naive CD4+ T cell proliferation: retained or even enhanced

## G* GGGGACGATCGTCG* G*G*G*G*G [CpG-A]
[2]
  reversal of suppressive function of CD4+ Treg cells after pretreatment: reverses their suppressive function; also recorded: reversed the suppressive effect; also recorded: reversed the suppressive activities of CD4^+ Treg cells equally well
[1]
  effect on proliferation of naive CD4+ T cells or Treg cells alone: lacked any effect
  reversal of Treg cell-mediated suppression of naive CD4+ T cell proliferation: restored the proliferation of naive CD4^+ T cells to near normal levels
